Source: US20140094413A1, “HEPATOCYTE GROWTH FACTOR (HGF) MIMICS AS THERAPEUTIC AGENTS” (WASHINGTON STATE UNIVERSITY, priority 2012, published 2014)
Several values for one entry are separate records, joined by “and”; a condition that tells them apart may be missing. Equal values may be shown once. Entries after “also recorded” stand apart in the source; their conditions may differ. Where a SMILES comes first, the peptide text is derived from it. [ ]: non-standard residue; d: D form. The star is where a group is joined. Nle = CCCC[C@H](N)C(=O)O; Hexanoyl = CCCCCC(=O)*; Ahx = NCCCCCC(=O)O

What was measured:
[1] = system: hippocampal neurons transfected with shMet; assay: Spinogenesis after c-Met knock-down with shRNA; type: cell-based, rat; settings: HGF 10 ng/ml, 48 hours
Excerpt: Neurons were transfected with mRFP-β-actin on day in vitro 6 (DIV6) using LipofectAMINE™ 2000 (Invitrogen) according to the manufacturer's protocol. This protocol yielded the desired 3-5% transfection efficiency thus enabling the visualization of individual neurons. Higher efficiencies obscured the dendritic arbor of individual neurons. Expression of fluorescently tagged actin allowed clear visualization of dendritic spines, as dendritic spines are enriched in actin. On DIV7 the cells were treated with vehicle (H20) or peptides (as described in the text) added to media. On DIV12 the neurons were fixed (4% paraformaldehyde, 3% sucrose, 60 mM PIPES, 25 mM HEPES, 5 mM EGTA, 1 mM MgCl2, pH 7.4) for 20 min at room temperature and mounted. Slides were dried for at least 20 hours at 4° C. and fluorescent images were obtained with Slidebook 4.2 Digital Microscopy Software driving an Olympus IX81 inverted confocal microscope with a 60× oil immersion lens, NA 1.4 and resolution 0.280 μm Dendritic spine density was measured on primary and secondary dendrites at a distance of at least 150 μm from the soma. Five 50 μm long segments of dendrite from at least 10 neurons per data point were analyzed for each data point reported. Each experiment was repeated at least three times using independent culture preparations. Dendrite length was determined using the National Institutes of Health's Image J 1.41o program (NIH, Bethesda, Md.) and the neurite tracing program Neuron J (Meijering, Jacob et al. 2004) Spines were manually counted.
A target sequence for c-Met was designed using RNAi central design program (see the website located at cancan.cshl.edu/). […]. The shRNA was transfected into cells using the lipofectamine method described above. Verification of receptor knockdown was done by creating a c-Met-6-Myc tagged gene product using the Gateway cloning system (Invitrogen). The Met protein coding sequence was cloned from rat whole brain cDNA using primers obtained from Integrated DNA Technologies, Inc. The amplified product was gel purified and a band corresponding to […] band excised and cloned into a PCAGGS-6-Myc destination vector (Gateway).
To irrefutably confirm that the AngIV analogues act via the HGF/c-met system an shRNA for c-Met was employed to knock-down the receptor. Dissociated hippocampal neurons were transfected with mRFP-β-actin and shMet RNA and receptor knock-down was allowed to take place for 48 hours prior to stimulating with 0.5 μg (per well) HGF (10 ng/ml), Dihexa or Nle1-AngIV (both at 10^−12M). Longer exposure appeared to be detrimental or toxic to the neurons. Effective c-Met receptor knock-down was verified by transfecting human embryonic kidney (HEK) cells with (0.1 μg) 6-Myc-tagged c-Met, (0.1 μg) shMet or mRFP-β-actin alone. Successful knockdown was confirmed by immunoblotting for Myc tagged c-met using an anti-Myc antibody (FIG. 19).

c-Met receptor = assay: c-Met phosphorylation in acute adult rat hippocampal slices; type: cell-based; settings: 30 minutes
Excerpt: Adult Sprague-Dawley rats (250 g+) obtained from Harlan Laboratories (Ca, USA) were anesthetized with isofluorane (Vet One™, MWI, Meridian, Id., USA) and decapitated. The brain was rapidly removed and placed into ice-chilled artificial cerebrospinal fluid (aCSF) for approximately 30 s. Both hemispheres were separated by a mid-saggital cut and both hippocampi removed. Slices were sectioned cross- and length-wise (400 μm) to ensure penetrability of the drug, using a McIlwain tissue chopper (Brinkmann, Gomshall, UK) and transferred to a gassed (95% O2/5% CO2) incubation chamber containing aCSF for 90 minutes at room temperature. Slices were transferred to fresh tubes, aCSF was removed by careful suctioning and replaced with aCSF containing vehicle (aCSF+aCSF), 100 ng/ml with carrier free adult recombinant Hepatocyte Growth Factor (HGF) (R and D Systems, MN, USA) in aCSF, 10^−10 M Hinge (Harding lab), […], 10^−10 M Dihexa (Harding lab) in aCSF, 10^−12 M Dihexa in aCSF or 50 ng/ml HGF+10^−12 M Dihexa in aCSF for 30 minutes at 37° C. with gentle rocking. aCSF was removed and the slices were lysed using RIPA buffer (Upstate/Milipore, Billerica, Mass.) and inhibitor Cocktails I and II (Sigma, St. Louis, Mo.), sonicated on ice and clarified by centrifugation for 30 minutes, 13,000 rpm at 4° C. The supernatant was removed from the pellet and stored at −80° C. or processed immediately for gel electrophoresis.
Protein concentration of the samples was quantified using the BCA method (Pierce, Rockford, Ill.) following the manufacturers protocol. Samples were added to SDS-PAGE buffer and boiled for 10 min. before loading onto a 4-12% Bis-Tris pre-cast gel (Invitrogen, Carlsbad, Calif.) for electrophoresis. Proteins were transferred onto PVDF membranes (Bio Rad, Hercules, Calif.) and blocked with AquaBlock™ (New England Biolabs, Ipswich, Mass.) for 1 hour at room temperature (RT). Primary antibody incubation was done in AquaBlock™ with rabbit anti-Met and […] phospho-Met (Tyr1234/1235) (1:1000, Cell Signaling Technology, Danvers, Mass.) overnight at 4° C. Alternating washes were done with PBS and PBST. Secondary antibody (IRDye) (Rockland, Gilbertsville, Pa.) incubations were done in AquaBlock™ for one hour at RT. Blots were imaged using LI-COR Odyssey Infrared Imaging System (LI-COR Biosciences, Lincoln, Nebr.).

hippocampal neurons = assay: Whole-cell recordings of mEPSCs in dissociated hippocampal neurons; type: cell-based, rat; set-up: unit not given beside the values; settings: 5 days
[2] = neurons transfected with mRFP-β-actin alone, Dihexa or Nle1-AngIV 10^−12M
[3] = neurons transfected with mRFP-β-actin and shMet, Dihexa or Nle1-AngIV 10^−12 M
[4] = saturating doses: HGF 100 ng/ml, Dihexa 10^−10 M
[5] = sub-threshold doses: HGF 50 ng/ml, Dihexa 10^−12 M

| Compound | Mean spine numbers per 50 μm dendrite length [1, 2] | Mean spine numbers per 50 μm dendrite length [1, 3] | c-Met phosphorylation vs vehicle (aCSF) (c-Met receptor; [4]) | c-Met phosphorylation vs vehicle (aCSF) (c-Met receptor; [5]) | mEPSC mean frequency (hippocampal neurons; HGF 10 ng/ml) | mEPSC mean frequency (hippocampal neurons; 10^−12 M (each)) |
| --- | --- | --- | --- | --- | --- | --- |
| CCCC[C@H](N)C(=O)N[C@@H](Cc1ccc(O)cc1)C(=O)N[C@H](C(=O)N[C@@H](Cc1c[nH]cn1)C(=O)N1CCC[C@H]1C(=O)N[C@@H](Cc1ccccc1)C(=O)O)[C@@H](C)CC [Nle1-AngIV, reference compound] (H-[Nle]YIHPF-OH; N-terminus and C-terminus assumed) | 20.0 spines per 50 μm dendrite leng | 12.1 spines per 50 μm dendrite leng | – | – | – | – |
| HGF: Hepatocyte growth factor, recombinant, purchased from R&D Systems | 20.6 spines per 50 μm dendrite leng | 12.4 spines per 50 μm dendrite leng | both increased c-Met phosphorylation; also recorded: effectively augment c-Met phosphorylation | not statistically different from control treated slices; also recorded: did not significantly increase c-Met receptor phosphorylation | 7.09±0.53 and 9.66±0.20 | – |
| CCCCCC(=O)N[C@@H](Cc1ccc(O)cc1)C(=O)N[C@H](C(=O)NCCCCCC(N)=O)[C@@H](C)CC [Dihexa, N-hexanoic-Tyr-Ile-(6)-aminohexanoic amide] (Hexanoyl-Tyr-Ile-[Ahx]-NH2) | 21.8 spines per 50 μm dendrite leng | 12.0 spines per 50 μm dendrite leng | both increased c-Met phosphorylation; also recorded: effectively augment c-Met phosphorylation | not statistically different from control treated slices; also recorded: did not significantly increase c-Met receptor phosphorylation | – | 6.75±0.99 and 8.25±0.56 |
